The subject of one assay is MXT mammary tumor. The assay is classed as in vivo. The conditions noted are these: MXT tumor-bearing, CP-treated mice, by day 22. Here is the method:
This experiment was designed to determine whether in a tumor model CC compounds could prevent cyclophosphamide-induced loss of body weight resulting from the depression of blood marrow function. Specified pathogen free (SPF) hygienic category colonies of first generation hybrid BDF1 (C57B1 female×DBA/2 male) adult female mice, weighing 23-24 g, were used. The animals were kept in macrolon cages at 22-24° C. (45-55% humidity), with a lighting regimen of 12/12 h light/dark. […] The animals used in these studies were cared for according to the “Guiding Principles for the Care and Use of Animals” based upon the Helsinki declaration.
MXT mammary tumor pieces (containing about 10^6 tumor cells) were implanted subcutaneously to develop the tumors. After six days when the tumor-bearing mice were first treated, the sizes of the tumors were in the 0.26-0.30 cm^3 range. All compounds used were dissolved in 0.9% sodium chloride and applied subcutaneously (CC compounds) or intraperitoneally (CP) in 50 μl volume. Tumor volume was determined by using calipers in three dimensions; this technique is well known to one having ordinary skill in the art. Tumor volume was calculated according to the generally accepted formula: V=a^2×b×π/6, where “a” and “b” mean the shortest and longest diameter, respectively, of the measured tumor.
In the first group, animals received no treatment. In the second group, mice were administered 120-mg/kg of CP on day 6 followed by seven consecutive daily treatments with the same dose. In the third group, each treatment with CP was associated with administration of 4.5-mg/kg of CCompound1. In the fourth group, each treatment with CP was associated with administration of 4.5-mg/kg of CCompound3. In the fifth group, each treatment with CP was associated with administration of 2.0-mg/kg of CCompound26. Each group included 7 mice. All data represent the average of 7 determinations (one determination with each mouse in the group).

Assay [1] relates to transplanted bone marrow cells. Description: Bone marrow regeneration from transplanted bone marrow cells after lethal irradiation (BM cells, CFU-GM). The format is in vivo, C57B1 mice. As to conditions: for CFU-GM per femur / CFU-GM/10^5 nucleated BM cells: CCompound1 4.5 mg per kg i.p. daily, day -3 to day +3. The protocol: C57B1 female (10-14 weeks old) mice received sublethal (250 cGy) whole body irradiation from a ^137Cesium source (day 0). Starting three days before irradiation, animals received daily 4.5 mg per kg of CCompound1 via intraperitoneal injection; this treatment also was provided on day 0 and once daily for three days subsequent to irradiation. In another group, mice were injected only with physiological saline. The subsequent procedure has been reported in Vas, V., Fajka-Boja, R., Ion, G. A., Dudics, V., Monostori, E. and Uher, F., “Biphasic effect of recombinant Galectin-1 on the growth and death of early hematopoietic cells,” Stem Cells, 23, 279-287 (2005). Briefly, bone marrow was flushed from the femurs with Iscove's modified Dulbecco's medium (Gibco BRL, Gaithersburg, Md., USA), and after standard erythrocyte lysis, nucleated cells were counted using a hemocytometer. Samples were taken on days 0, 1, 3, and 10. To measure the formation of the granulocyte-macrophage colony-forming units (CFU-GM), a semisolid colony-forming cell assay was used. Nucleated bone marrow cells (isolated on the days as indicated above) were plated in 35-mm Petri dishes (Costar, Cambridge, Mass., USA) in Iscove's modified Dulbecco's medium supplemented with 1% methylcellulose, 30% horse serum (Gibco), 10% WEHI-3B conditioned medium as a source of growth factors, 4 mM L-glutamine, 0.25 mM a-thioglycerol (Gibco), 1% deionized bovine serum albumine (Sigma), and antibiotics (Gibco). Cells were cultured at 37° C. in 5% CO2/95% air atmosphere and colonies were counted on day 7 in the same dish. Colonies containing at least 50 cells were counted which is a generally accepted value in the literature. Each value represents the mean±st. dev. of 9 samples (3 parallel dishes from each animal).
In this experiment the goal was to determine if CCompound1 can enhance expansion of transplanted bone marrow cells infused after applying a lethal dose of whole body irradiation (which reduces the number of bone marrow cells by more than 90%). C57B1 female mice (10-14 weeks old) were subjected to 900 cGy whole body irradiation from a ^137Cesium source which was followed within 6 hours by infusion of one million donor nucleated bone marrow cells by tail vein injection. Starting 3 days before irradiation, animals received daily 4.5 mg per kg of CCompound1 via intraperitoneal injection; this treatment also was provided on day 0 and once daily for the subsequent 3 days after irradiation. In another group, mice were injected only with physiological saline.
Bone marrow cells were collected on day 0 from non-irradiated animals as well as on days 6, 14, 28 and 42 after irradiation and bone marrow transplantation. Nucleated bone marrow cells were quantified and CFU-GM assay was performed as described in Example 3 while blood profiling was performed as described in Example 1. For each group, on the indicated days bone marrow and blood samples were collected from 3 animals. Each value presented in Table 5 and Table 6 represents the mean±st. dev. of 3 samples (derived from 3 animals).

Where [2] appears, read: day 6 after 900 cGy irradiation and bone marrow transplantation.
Where [3] appears, read: day 14 after 900 cGy irradiation and bone marrow transplantation.
The mark [4] stands for this setting: day 28 after 900 cGy irradiation and bone marrow transplantation.
The mark [5] stands for this setting: day 42 after 900 cGy irradiation and bone marrow transplantation.

Take `Cc1c(OCC(O)C[N+](C)(C)C)cc2c(=O)c3ccccc3sc2c1C.[Cl-]` (centres unmarked) [CCcompound1, [3-(3,4-Dimethyl-9-oxo-9H-thioxanthen-2-yloxy)-2-hydroxypropyl]trimethyl-ammonium chloride]: the “effect on body weight” value with MXT mammary tumor is listed as “body weight gain”. The CFU-GM per femur is on record as 134.9 in assay [1] (setting [2]), 650.4 in assay [1] (setting [3]), 1,286.4 in assay [1] (setting [4]) and 992.4 in assay [1] (setting [5]). Besides, the “CFU-GM/10^5 nucleated BM cells” value in assay [1] (setting [2]) was 44.8 ± 5.1; in assay [1] (setting [3]), 81.2 ± 5.3; in assay [1] (setting [4]), 125.5 ± 9.1; in assay [1] (setting [5]), 71.5 ± 5.3. The “level of bone marrow re-population in the femur, treated versus untreated animals” value in assay [1] (day 6 following transplantation) is “about 5.3 fold”; in assay [1] (day 14 following transplantation), roughly 2.9 fold.

Source of the values: patent US7781423B2, “Compounds to promote regeneration of bone marrow” (priority 2007, dated 2010).
